{"source": "ChEMBL document CHEMBL2029340", "about": "(J Med Chem, 2012)", "key": {"Influenza A virus [1]": {"system": "Influenza A virus", "test": "Antiviral activity against amantidine-resistant Influenza A virus A/WSN/33(H1N1) infected in MDCK cells assessed as inhibition of virus-induced cytopathic effects after 3 days by CCK-8 assay", "format": "functional, organism-based", "settings": "A/WSN/1933(H1N1), 72 h"}, "Influenza A virus [2]": {"system": "Influenza A virus", "test": "Antiviral activity against amantidine-resistant Influenza A virus A/WSN/33(H1N1) infected in MDCK cells assessed as reduction in plaque formation after 3 days by microscopy", "format": "functional, organism-based", "settings": "A/WSN/1933(H1N1)"}, "Influenza A virus [3]": {"system": "Influenza A virus", "test": "Antiviral activity against amantidine-resistant Influenza A virus A/WSN/33(H1N1) infected in MDCK cells assessed as reduction in plaque formation at 0.3 uM after 3 days by microscopy", "format": "functional, organism-based", "settings": "A/WSN/1933(H1N1)"}, "Influenza A virus [4]": {"system": "Influenza A virus", "test": "Antiviral activity against amantidine-resistant Influenza A virus A/WSN/33(H1N1) infected in MDCK cells assessed as reduction in plaque formation after 3 days by microplate counting of infectious particles assay", "format": "functional, organism-based", "settings": "A/WSN/1933(H1N1), 72 h"}, "Influenza A virus [5]": {"system": "Influenza A virus", "test": "Antiviral activity against tamiflu-resistant Influenza A virus A/WSN/33 (H1N1) harboring neuraminidase 274Y mutant infected in MDCK cells assessed as reduction of nucleoprotein antigen level after 3 days", "format": "functional, organism-based, A/WSN/1933(H1N1)"}, "Influenza A virus [6]": {"system": "Influenza A virus", "test": "Antiviral activity against Influenza A virus A/WSN/1933 (H1N1) harboring wild type nucleoprotein 52Y infected in MDCK cells assessed as reduction of nucleoprotein antigen level after 3 days", "format": "functional, organism-based", "settings": "72 h"}, "Influenza A virus [7]": {"system": "Influenza A virus", "test": "Antiviral activity against Influenza A virus A/WSN/1933 (H1N1) harboring nucleoprotein 52H mutant infected in MDCK cells assessed as reduction of nucleoprotein antigen level after 3 days", "format": "functional, organism-based"}, "Influenza A virus [8]": {"system": "Influenza A virus", "test": "Antiviral activity against amantidine-resistant Influenza A virus A/WSN/33(H1N1) infected in MDCK cells assessed as reduction in plaque formation at 1 uM after 3 days by microscopy", "format": "functional, organism-based", "settings": "A/WSN/1933(H1N1)"}}, "note": "Calls of active or inactive are those of the source. No cut-off for these calls is given here."}
{"molecule": "Cc1noc(-c2ccccc2)c1C(=O)N1CCN(c2ccc([N+](=O)[O-])cc2Cl)CC1", "values": [{"measurement": "IC50", "setting": "Influenza A virus [1]", "value": 4.83, "unit": "µM"}]}
{"molecule": "CCOc1ccccc1-n1nnc(C)c1C(=O)N1CCN(c2ccc([N+](=O)[O-])cc2Cl)CC1", "values": [{"measurement": "IC50", "setting": "Influenza A virus [1]", "value": 3.22, "unit": "µM"}]}
{"molecule": "Cc1onc(-c2ccccc2)c1C(=O)N1CCN(c2ccc([N+](=O)[O-])cc2Cl)CC1", "note": "[NUCLEOZIN]", "values": [{"measurement": "IC50", "setting": "Influenza A virus [1]", "value": 0.32, "unit": "µM"}, {"measurement": "Activity", "setting": "Influenza A virus [2]", "value": "Dose-dependent effect"}, {"measurement": "Activity", "setting": "Influenza A virus [3]", "value": "Active"}, {"measurement": "IC50", "setting": "Influenza A virus [4]", "value": 0.1, "unit": "µM"}, {"measurement": "IC50", "setting": "Influenza A virus [5]", "value": 0.66, "unit": "µM"}, {"measurement": "IC50", "setting": "Influenza A virus [6]", "value": 0.49, "unit": "µM"}, {"measurement": "IC50", "setting": "Influenza A virus [7]", "value": "> 50", "unit": "µM"}]}
{"molecule": "COc1cccc(-n2nnc(C)c2C(=O)N2CCN(c3ccc([N+](=O)[O-])cc3Cl)CC2)c1", "values": [{"measurement": "IC50", "setting": "Influenza A virus [1]", "value": 5.35, "unit": "µM"}]}
{"molecule": "Cc1nnn(-c2ccccc2OC(C)C)c1C(=O)N1CCN(c2ccc([N+](=O)[O-])cc2Cl)CC1", "values": [{"measurement": "IC50", "setting": "Influenza A virus [1]", "value": 8.42, "unit": "µM"}]}
{"molecule": "COc1ccccc1-n1nnc(C)c1C(=O)N1CCCN(c2ccc([N+](=O)[O-])cc2Cl)CC1", "values": [{"measurement": "IC50", "setting": "Influenza A virus [1]", "value": 35.5, "unit": "µM"}]}
{"molecule": "COc1ccccc1-n1nnc(C)c1C(=O)N1CCN(c2ccc([N+](=O)[O-])cc2)CC1", "values": [{"measurement": "IC50", "setting": "Influenza A virus [1]", "value": 17, "unit": "µM"}]}
{"molecule": "Cc1[nH]nc(-c2ccccc2)c1C(=O)N1CCN(c2ccc([N+](=O)[O-])cc2Cl)CC1", "values": [{"measurement": "IC50", "setting": "Influenza A virus [1]", "value": 3.38, "unit": "µM"}]}
{"molecule": "Cc1[nH]nc(-c2ccccc2Cl)c1C(=O)N1CCN(c2ccc([N+](=O)[O-])cc2Cl)CC1", "values": [{"measurement": "IC50", "setting": "Influenza A virus [1]", "value": 0.72, "unit": "µM"}]}
{"molecule": "COc1ccc(-n2nnc(C)c2C(=O)N2CCN(c3ccc([N+](=O)[O-])cc3Cl)CC2)cc1", "values": [{"measurement": "IC50", "setting": "Influenza A virus [1]", "value": 5.61, "unit": "µM"}]}
{"molecule": "Cc1nnn(-c2cccc(Cl)c2)c1C(=O)N1CCN(c2ccc([N+](=O)[O-])cc2Cl)CC1", "values": [{"measurement": "IC50", "setting": "Influenza A virus [1]", "value": 4.89, "unit": "µM"}]}
{"molecule": "CCc1nnn(-c2ccccc2OC)c1C(=O)N1CCN(c2ccc([N+](=O)[O-])cc2Cl)CC1", "values": [{"measurement": "IC50", "setting": "Influenza A virus [1]", "value": "> 50", "unit": "µM"}]}
{"molecule": "COc1ccccc1-n1nnc(C)c1C(=O)N1CCN(c2ccccc2)CC1", "values": [{"measurement": "IC50", "setting": "Influenza A virus [1]", "value": "> 50", "unit": "µM"}]}
{"molecule": "NC12CC3CC(CC(C3)C1)C2", "note": "[AMANTADINE]", "values": [{"measurement": "IC50", "setting": "Influenza A virus [1]", "value": "> 50", "unit": "µM"}]}
{"molecule": "Cc1nnn(-c2ccccc2Cl)c1C(=O)N1CCN(c2ccc([N+](=O)[O-])cc2Cl)CC1", "values": [{"measurement": "IC50", "setting": "Influenza A virus [1]", "value": 1.2, "unit": "µM"}]}
{"molecule": "Cc1nnn(-c2ccccc2)c1C(=O)N1CCN(c2ccc([N+](=O)[O-])cc2Cl)CC1", "values": [{"measurement": "IC50", "setting": "Influenza A virus [1]", "value": 3.13, "unit": "µM"}]}
{"molecule": "Cc1nnn(-c2ccccc2O)c1C(=O)N1CCN(c2ccc([N+](=O)[O-])cc2Cl)CC1", "values": [{"measurement": "IC50", "setting": "Influenza A virus [1]", "value": 1.58, "unit": "µM"}]}
{"molecule": "Cc1nnn(-c2ccc(Cl)cc2)c1C(=O)N1CCN(c2ccc([N+](=O)[O-])cc2Cl)CC1", "values": [{"measurement": "IC50", "setting": "Influenza A virus [1]", "value": 4.93, "unit": "µM"}]}
{"molecule": "COc1ccccc1-n1nncc1C(=O)N1CCN(c2ccc([N+](=O)[O-])cc2Cl)CC1", "values": [{"measurement": "IC50", "setting": "Influenza A virus [1]", "value": 8.36, "unit": "µM"}]}
{"molecule": "Cc1ccccc1-n1nnc(C)c1C(=O)N1CCN(c2ccc([N+](=O)[O-])cc2Cl)CC1", "values": [{"measurement": "IC50", "setting": "Influenza A virus [1]", "value": 2.4, "unit": "µM"}]}
{"molecule": "COc1ccccc1-n1nnc(C)c1C(=O)N1CCN(c2ccc([N+](=O)[O-])cc2Cl)CC1", "values": [{"measurement": "IC50", "setting": "Influenza A virus [1]", "value": 0.68, "unit": "µM"}, {"measurement": "Activity", "setting": "Influenza A virus [8]", "value": "Active"}, {"measurement": "Activity", "setting": "Influenza A virus [3]", "value": "Active"}, {"measurement": "IC50", "setting": "Influenza A virus [4]", "value": 0.23, "unit": "µM"}, {"measurement": "IC50", "setting": "Influenza A virus [5]", "value": 1.11, "unit": "µM"}, {"measurement": "IC50", "setting": "Influenza A virus [6]", "value": 1.4, "unit": "µM"}, {"measurement": "IC50", "setting": "Influenza A virus [7]", "value": "> 50", "unit": "µM"}]}
{"molecule": "COc1ccccc1-c1ccccc1C(=O)N1CCN(c2ccc([N+](=O)[O-])cc2Cl)CC1", "values": [{"measurement": "IC50", "setting": "Influenza A virus [1]", "value": 1.57, "unit": "µM"}]}
{"molecule": "O=C(c1ccccc1-c1ccccc1)N1CCN(c2ccc([N+](=O)[O-])cc2Cl)CC1", "values": [{"measurement": "IC50", "setting": "Influenza A virus [1]", "value": 5.24, "unit": "µM"}]}
{"molecule": "COc1ccccc1-n1nnc(C)c1C(=O)N1CCN(c2ccccc2Cl)CC1", "values": [{"measurement": "IC50", "setting": "Influenza A virus [1]", "value": 48.1, "unit": "µM"}]}
{"molecule": "COc1ccccc1-c1onc(C)c1C(=O)N1CCN(c2ccc([N+](=O)[O-])cc2Cl)CC1", "values": [{"measurement": "IC50", "setting": "Influenza A virus [1]", "value": 0.71, "unit": "µM"}]}
{"molecule": "COc1cccc(OC)c1-n1nnc(C)c1C(=O)N1CCN(c2ccc([N+](=O)[O-])cc2Cl)CC1", "values": [{"measurement": "IC50", "setting": "Influenza A virus [1]", "value": 1.34, "unit": "µM"}]}
{"molecule": "COc1cc([N+](=O)[O-])ccc1N1CCN(C(=O)c2c(C)nnn2-c2ccccc2OC)CC1", "values": [{"measurement": "IC50", "setting": "Influenza A virus [1]", "value": "> 50", "unit": "µM"}]}
{"molecule": "CC(=O)c1ccccc1-n1nnc(C)c1C(=O)N1CCN(c2ccc([N+](=O)[O-])cc2Cl)CC1", "values": [{"measurement": "IC50", "setting": "Influenza A virus [1]", "value": 13.7, "unit": "µM"}]}
